Measurements taken from patent US10875874B2, “Ginkgolide B derivative and preparation method and use thereof” (Chengdu Baiyu Ginkgolide Pharmaceuticals Co., Ltd., priority 2015, dated 2020).
≈ marks a conversion by molar mass, not a printed value. Marks after values point to notes of the source that are not given here.

Columns and labels:
[1] = system: spontaneously hypertensive rats (SHR); assay: Caudal artery systolic pressure of spontaneously hypertensive rats, single administration; assay type: in vivo, rat; conditions: x ± s, n = 8
How it was run: (§1)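 SHR rats of both sexes (200–250 g, 8/group) dosed intragastrically with 60 or 120 mg/kg/d, or captopril 27 mg/kg, once daily for 8 weeks; Wistar rats and vehicle SHR served as controls. Tail-cuff systolic pressure taken as the mean of 3 readings, measured before dosing and 30–120 min after the first dose, or 30 min post-dose on days 1–56 for chronic treatment.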

[2] = Water solubility test; conditions: purified water, thermodynamic from solid
Procedure: Measuring method: samples are ground to obtain fine powder, target compounds are quantitatively weighed, the weighed compounds are added into purified water, and the solubility of the compounds is investigated by ultrasonics.

[3] = Weekly food intake of SHR rats; assay type: in vivo, rat
How it was run: (§2)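 Male and female SHR rats (200-250 g, 8/group) dosed intragastrically once daily for 8 weeks with test compounds at 60 or 120 mg/kg/d or captopril 27 mg/kg; Wistar and SHR controls received distilled water. Body weight and food intake observed during treatment.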

[4] = system: spontaneously hypertensive rats (SHR); assay: Caudal artery systolic pressure of spontaneously hypertensive rats, 8 weeks of continuous medication; assay type: in vivo, rat; conditions: x ± s, n = 8
How it was run: as §1

[5] = Weekly body weight of SHR rats; assay type: in vivo, rat
How it was run: as §2

[6] = 60 mg/kg/d intragastric, week 0
[7] = 60 mg/kg/d intragastric, week 1
[8] = 60 mg/kg/d intragastric, week 2
[9] = 60 mg/kg/d intragastric, week 3
[10] = 60 mg/kg/d intragastric, week 4
[11] = 60 mg/kg/d intragastric, week 5
[12] = 60 mg/kg/d intragastric, week 6
[13] = 60 mg/kg/d intragastric, week 7
[14] = 60 mg/kg/d intragastric, week 8
[15] = 120 mg/kg/d intragastric, week 0
[16] = 120 mg/kg/d intragastric, week 1
[17] = 120 mg/kg/d intragastric, week 2
[18] = 120 mg/kg/d intragastric, week 3
[19] = 120 mg/kg/d intragastric, week 4
[20] = 120 mg/kg/d intragastric, week 5
[21] = 120 mg/kg/d intragastric, week 6
[22] = 120 mg/kg/d intragastric, week 7
[23] = 120 mg/kg/d intragastric, week 8

Structure (SMILES): C[C@@H]1C(=O)O[C@H]2[C@H](O)[C@@]34C5C[C@@H](C(C)(C)C)C36[C@@H](OC(=O)[C@@H]6OC(=O)[C@H](c3ccccc3Cl)N3CCc6sccc6C3)O[C@@]4(C(=O)O5)[C@@]12O (some centres unmarked) [BL]
- Systolic pressure ([1]; 60 mg/kg intragastric single administration, 30 min): 158.36 ± 10.54 mmHg
- Systolic pressure ([1]; 60 mg/kg intragastric single administration, 60 min): 154.68 ± 12.48 mmHg
- Systolic pressure ([1]; 60 mg/kg intragastric single administration, 90 min): 152.74 ± 12.58 mmHg
- Systolic pressure ([1]; 60 mg/kg intragastric single administration, 120 min): 152.04 ± 10.02 mmHg
- Systolic pressure ([1]; 60 mg/kg intragastric single administration, before administration): 165.68 ± 16.35 mmHg
- Systolic pressure ([1]; 120 mg/kg intragastric single administration, 30 min): 148.01 ± 5.98 mmHg
- Systolic pressure ([1]; 120 mg/kg intragastric single administration, 60 min): 151.36 ± 9.45 mmHg
- Systolic pressure ([1]; 120 mg/kg intragastric single administration, 90 min): 152.95 ± 12.54 mmHg
- Systolic pressure ([1]; 120 mg/kg intragastric single administration, 120 min): 151.98 ± 9.26 mmHg
- Systolic pressure ([1]; 120 mg/kg intragastric single administration, before administration): 164.25 ± 11.69 mmHg
- solubility [2]: 200 µg/mL (≈ 280 µM)
- Average dairy food intake [3, 6]: 18.4 g/day
- Average dairy food intake [3, 7]: 19.4^▴ g/d
- Average dairy food intake [3, 8]: 20.5^▴▴ g/d
- Average dairy food intake [3, 9]: 21.0^▴▴ g/d
- Average dairy food intake [3, 10]: 20.9^▴▴ g/d
- Average dairy food intake [3, 11]: 21.9^▴▴ g/d
- Average dairy food intake [3, 12]: 23.5^▴▴ g/d
- Average dairy food intake [3, 13]: 24.5^▴▴ g/d
- Average dairy food intake [3, 14]: 25.1^▴▴ g/d
- Average dairy food intake [3, 15]: 18.6 g/day
- Average dairy food intake [3, 16]: 20.0^▴ g/d
- Average dairy food intake [3, 17]: 20.8^▴▴ g/d
- Average dairy food intake [3, 18]: 21.9^▴▴ g/d
- Average dairy food intake [3, 19]: 22.7^▴▴ g/d
- Average dairy food intake [3, 20]: 23.5^▴▴ g/d
- Average dairy food intake [3, 21]: 24.6^▴▴ g/d
- Average dairy food intake [3, 22]: 25.1^▴▴ g/d
- Average dairy food intake [3, 23]: 26.7^▴▴ g/d
- Systolic pressure ([4]; 60 mg/kg/d intragastric continuous, 1 d, 30 min after administration): 154.08 ± 11.54 mmHg
- Systolic pressure ([4]; 60 mg/kg/d intragastric continuous, 7 d, 30 min after administration): 156.92 ± 9.82 mmHg
- Systolic pressure ([4]; 60 mg/kg/d intragastric continuous, 13 d, 30 min after administration): 156.07 ± 8.52 mmHg
- Systolic pressure ([4]; 60 mg/kg/d intragastric continuous, 19 d, 30 min after administration): 153.96 ± 11.07 mmHg
- Systolic pressure ([4]; 60 mg/kg/d intragastric continuous, 25 d, 30 min after administration): 154.57 ± 9.74 mmHg
- Systolic pressure ([4]; 60 mg/kg/d intragastric continuous, 35 d, 30 min after administration): 153.67 ± 11.58 mmHg
- Systolic pressure ([4]; 60 mg/kg/d intragastric continuous, 49 d, 30 min after administration): 149.68 ± 10.42 mmHg
- Systolic pressure ([4]; 60 mg/kg/d intragastric continuous, 56 d, 30 min after administration): 153.62 ± 9.47 mmHg
- Systolic pressure ([4]; 60 mg/kg/d intragastric continuous, before administration): 165.68 ± 16.35 mmHg
- Systolic pressure ([4]; 120 mg/kg/d intragastric continuous, 1 d, 30 min after administration): 153.56 ± 8.15 mmHg
- Systolic pressure ([4]; 120 mg/kg/d intragastric continuous, 7 d, 30 min after administration): 152.74 ± 10.25 mmHg
- Systolic pressure ([4]; 120 mg/kg/d intragastric continuous, 13 d, 30 min after administration): 149.52 ± 10.24 mmHg
- Systolic pressure ([4]; 120 mg/kg/d intragastric continuous, 19 d, 30 min after administration): 149.05 ± 11.09 mmHg
- Systolic pressure ([4]; 120 mg/kg/d intragastric continuous, 25 d, 30 min after administration): 147.09 ± 12.68 mmHg
- Systolic pressure ([4]; 120 mg/kg/d intragastric continuous, 35 d, 30 min after administration): 147.52 ± 10.64 mmHg
- Systolic pressure ([4]; 120 mg/kg/d intragastric continuous, 49 d, 30 min after administration): 150.94 ± 11.06 mmHg
- Systolic pressure ([4]; 120 mg/kg/d intragastric continuous, 56 d, 30 min after administration): 149.76 ± 12.63 mmHg
- Systolic pressure ([4]; 120 mg/kg/d intragastric continuous, before administration): 164.25 ± 11.69 mmHg
- Body weight [5, 6]: 230.9 g
- Body weight [5, 7]: 236.4 g
- Body weight [5, 8]: 243.1 g
- Body weight [5, 9]: 252.8 g
- Body weight [5, 10]: 260.9^▴▴ g
- Body weight [5, 11]: 265.8^▴▴ g
- Body weight [5, 12]: 270.6^▴ g
- Body weight [5, 13]: 277.3^▴▴ g
- Body weight [5, 14]: 285.4^▴▴ g
- Body weight [5, 15]: 230.6 g
- Body weight [5, 16]: 251.8^▴▴ g
- Body weight [5, 17]: 257.3^▴▴ g
- Body weight [5, 18]: 264.1^▴▴ g
- Body weight [5, 19]: 270.5^▴▴ g
- Body weight [5, 20]: 281.7^▴▴ g
- Body weight [5, 21]: 290.3^▴▴ g
- Body weight [5, 22]: 302.8^▴▴ g
- Body weight [5, 23]: 315.2^▴▴ g
